Results taken from patent publication US20230270113A1, “FUNGICIDAL MIXTURES” (Adama Makhteshim Ltd., priority 2020, published 2023).
Like-named read-outs stand apart in the source and are kept apart here.

What was measured:
Assay type in all cases: in vivo
Botrytis cinerea = test: Example 11: greenhouse control of Botrytis cinerea in strawberry
Phytophthora infestans = conditions: tomato
Alternaria solani [1] = test: Example 6b: greenhouse control of Alternaria solani in potato plants
Plasmopara viticola = test: Example 7: greenhouse control of Plasmopara viticola in grape plants, folpet with partners
Venturia inaequalis [2] = test: Example A: greenhouse control of apple scab, phthalimides with DMI and/or fluopyram; conditions: for % control observed on leaves 26 DAYS after the application / % control observed on leaves 19 DAYS after the application: captan or folpet 1200, difenoconazole 75, tebuconazole 150, fluopyram 150 gAI/ha; for Var % (19/26 DAYS): change of % control from 19 to 26 days
Venturia inaequalis [3] = test: Example 1b: greenhouse control of apple scab, reduced rates of phthalimides and difenoconazole; conditions: for % control observed on leaves 26 DAYS after the application / % control observed on leaves 19 DAYS after the application: captan or folpet 900, difenoconazole 35, tebuconazole 150, fluopyram 150 gAI/ha; for Var % (19/26 DAYS): change of % control from 19 to 26 days
[4] = test system: Zymoseptoria tritici Tri-R6 strain; conditions: for effect of FOLPET on the efficacy of the systemic product, treated area / effect of FOLPET on the efficacy of the systemic product, untreated area / effect of FOLPET on the efficacy of the systemic product, treated and untreated areas: with FOLPET vs use alone; for effect of FOLPET on the efficacy of the systemic product, treated and untreated areas: 21 and 28 days
Alternaria solani [5] = test: Example 4: greenhouse control of Alternaria solani in tomato seedlings, phthalimides with DMI and/or fluxapyroxad; conditions: Table 9; captan or folpet 1200, difenoconazole 75, tebuconazole 150, fluxapyroxad 75 gAI/ha; one spray 1 day before inoculation
Erysiphe necator = test: Example 9: greenhouse control of Erysiphe necator in grape plants
Description: • An experiment was conducted in controlled conditions under a greenhouse to evaluate the fungicidal activity of the mixture comprising (1) phthalimide fungicide (folpet, captan) and (2) demethylation inhibitor fungicide (difenoconazole) or a quinone outside inhibitors (azoxystrobin, pyraclostrobin), toward Erysiphe necator in grape plants, variety Barbera. In addition, the activity of phthalimide with two fungicides (A); demethylation inhibitor fungicide (difenoconazole) or a quinone outside inhibitors (azoxystrobin, pyraclostrobin and dehydrogenase inhibitor fungicide (fluxapyroxad) was also tested. • The experiment was conducted by applying compositions of fluxapyroxad, difenoconazole (Score® 10 WG), azoxystrobin (Ortiva®), pyraclostrobin (Cabrio® EC) and folpet (Folpan 80 WDG®) alone or together. The compositions were diluted with water. Water amount used was equivalent to 800 L/ha. Application was performed in an automatic spraying cabin equipped with 2 flatfan AI11003VS nozzles. • Treatments: • Folpet 1000 gr (A.I.)/ha • Fluxapyroxad 45 gr (A.I.)/ha • Difenoconazole 37.5 gr (A.I.)/ha • Difenoconazole 37.5 gr (A.I.)/ha+folpet 1000 gr (A.I.)/ha • Azoxystrobin 90 gr (A.I.)/ha • Azoxystrobin 90 gr (A.I.)/ha+folpet 1000 gr (A.I.)/ha • Pyraclostrobin 75 gr (A.I.)/ha • Pyraclostrobin 75 gr (A.I.)/ha+folpet 1000 gr (A.I.)/ha • Fluxapyroxad 45 gr (A.I.)/ha+Difenoconazole 37.5 gr (A.I.)/ha • Fluxapyroxad 45 gr (A.I.)/ha+Difenoconazole 37.5 gr (A.I.)/ha+folpet 1000 gr (A.I.)/ha • Azoxystrobin 90 gr (A.I.)/ha+Fluxapyroxad 45 gr (A.I.)/ha • Azoxystrobin 90 gr (A.I.)/ha+Fluxapyroxad 45 gr (A.I.)/ha+folpet 1000 gr (A.I.)/ha • Azoxystrobin 90 gr (A.I.)/ha+Difenoconazole 37.5 gr (A.I.)/ha • Azoxystrobin 90 gr (A.I.)/ha+Difenoconazole 37.5 gr (A.I.)/ha+folpet 1000 gr (A.I.)/ha • Pyraclostrobin 75 gr (A.I.)/ha+Fluxapyroxad 45 gr (A.I.)/ha • Pyraclostrobin 75 gr (A.I.)/ha+Fluxapyroxad 45 gr (A.I.)/ha+folpet 1000 gr (A.I.)/ha • Pyraclostrobin 75 gr (A.I.)/ha+Difenoconazole 37.5 gr (A.I.)/ha • Pyraclostrobin 75 gr (A.I.)/ha+Difenoconazole 37.5 gr (A.I.)/ha+folpet 1000 gr (A.I.)/ha • To test for fungicidal control of Erysiphe necator, the grape plants were sprayed with each of the above treatments. Each of the above treatments was applied from 4 to 10 times according to the disease development, applications occurring 7-14 days after the previous treatment. The treatments were composed of 4 replicates. • Evaluations were performed for the whole duration of the experiment. At each time the incidence and the severity of Erysiphe necator on plants parts was determined.

Sphaerotheca fuliginea = test: Example 10: greenhouse control of Sphaerotheca fuliginea on melon plants
Venturia inaequalis [6] = test: Example 2: greenhouse control of apple scab, phthalimides with cyprodinil and/or fluxapyroxad; conditions: Table 6; captan or folpet 1200, cyprodinil 300, fluxapyroxad 90 gAI/ha; one spray 1 day before inoculation
Alternaria solani [7] = test: Example 5: greenhouse control of Alternaria solani in tomato, phthalimides with azoxystrobin and/or fluxapyroxad
[8] = Table 2, one spray 1 day before inoculation, severity based
[9] = Table 4, one spray 1 day before inoculation

Cc1cc(OC(C)C)ccc1C(=O)C(C)(C)NC(=O)c1sccc1C [ISOFETAMID]
% control observed on leaves 21 DAYS after the application (Botrytis cinerea; rate 400 gr (A.I.)/ha): 74.0%

N#Cc1c[nH]cc1-c1cccc2c1OC(F)(F)O2 [FLUDIOXONIL]
% control observed on leaves 21 DAYS after the application (Botrytis cinerea; rate 150 gr (A.I.)/ha): 40.8%

CCNC(=O)NC(=O)/C(C#N)=N/OC [CYMOXANIL]
% control observed on leaves 14 DAYS after the application (Phytophthora infestans; rate 150 gr (A.I.)/ha): 68.5%
% control observed on leaves 21 DAYS after the application (Alternaria solani [1]; rate 150 gr (A.I.)/ha): 68.4%
% control observed on leaves 21 DAYS after the application (Plasmopara viticola; rate 126.0 gr (A.I.)/ha): 73.6%

O=C(NCc1ncc(C(F)(F)F)cc1Cl)c1c(Cl)cccc1Cl [FLUOPICOLIDE]
% control observed on leaves 21 DAYS after the application (Plasmopara viticola; rate 75.0 gr (A.I.)/ha): 74.5%

O=C(NCCc1ncc(C(F)(F)F)cc1Cl)c1ccccc1C(F)(F)F [FLUOPYRAM, fluopyram]
% control observed on leaves 26 DAYS after the application (Venturia inaequalis [2]; [8]): 75.3%
% control observed on leaves 19 DAYS after the application (Venturia inaequalis [2]; Table 3): 83.9%
% control observed on leaves 26 DAYS after the application (Venturia inaequalis [2]; Table 3): 75.3%
Var % (19/26 DAYS) (Venturia inaequalis [2]; Table 3): −10.3%
% control observed on leaves 26 DAYS after the application (Venturia inaequalis [3]; [9]): 76.2%
% control observed on leaves 19 DAYS after the application (Venturia inaequalis [3]; Table 5): 85.1%
% control observed on leaves 26 DAYS after the application (Venturia inaequalis [3]; Table 5): 76.2%
Var % (19/26 DAYS) (Venturia inaequalis [3]; Table 5): −10.5%
effect of FOLPET on the efficacy of the systemic product, treated area [4]: efficacy gains
effect of FOLPET on the efficacy of the systemic product, untreated area [4]: not statistically significant

O=[N+]([O-])c1cc(C(F)(F)F)c(Cl)c([N+](=O)[O-])c1Nc1ncc(C(F)(F)F)cc1Cl [FLUAZINAM]
% control observed on leaves 21 DAYS after the application (Botrytis cinerea; rate 500 gr (A.I.)/ha): 68.5%

Cc1cc(C(F)(F)F)nn1CC(=O)N1CCC(c2nc(C3=NOC(c4c(F)cccc4F)C3)cs2)CC1 (stereo not drawn) [OXATHIAPIPROLIN]
% control observed on leaves 14 DAYS after the application (Phytophthora infestans; rate 15 gr (A.I.)/ha): 78.6%
% control observed on leaves 21 DAYS after the application (Alternaria solani [1]; rate 15 gr (A.I.)/ha): 63.6%
% control observed on leaves 21 DAYS after the application (Plasmopara viticola; rate 22.5 gr (A.I.)/ha): 86.7%

CC1COC(Cn2cncn2)(c2ccc(Oc3ccc(Cl)cc3)cc2Cl)O1 (stereo not drawn) [DIFENOCONAZOLE, difenoconazole]
% control observed on leaves 26 DAYS after the application (Venturia inaequalis [2]; [8]): 71.8%
% control observed on leaves 19 DAYS after the application (Venturia inaequalis [2]; Table 3): 77.9%
% control observed on leaves 26 DAYS after the application (Venturia inaequalis [2]; Table 3): 71.8%
Var % (19/26 DAYS) (Venturia inaequalis [2]; Table 3): −7.8%
% control observed on leaves 26 DAYS after the application (Venturia inaequalis [3]; [9]): 73.1%
% control observed on leaves 19 DAYS after the application (Venturia inaequalis [3]; Table 5): 79.5%
% control observed on leaves 26 DAYS after the application (Venturia inaequalis [3]; Table 5): 73.1%
Var % (19/26 DAYS) (Venturia inaequalis [3]; Table 5): −8.1%
% control observed on leaves 20 DAYS after the application (Alternaria solani [5]): 60.6%
% control observed on leaves 21 DAYS after the application (Erysiphe necator; rate 37.5 gr (A.I.)/ha): 68.9%
% control observed on leaves 21 DAYS after the application (Sphaerotheca fuliginea; rate 50 gr (A.I.)/ha): 49.4%

Cc1cc(C2CC2)nc(Nc2ccccc2)n1 [CYPRODINIL, cyprodinil]
% control observed on leaves 26 DAYS after the application (Venturia inaequalis [6]): 62.7%

Cc1cc(C2CC2)nc(Nc2ccccc2)n1 [CYPRODNIL]
% control observed on leaves 21 DAYS after the application (Botrytis cinerea; rate 150 gr (A.I.)/ha): 51.8%

CO/C=C(/C(=O)OC)c1ccccc1Oc1cc(Oc2ccccc2C#N)ncn1 [AZOXYSTROBIN, azoxystrobin]
% control observed on leaves 20 DAYS after the application (Alternaria solani [7]; Table 10, captan or folpet 1200, azoxystrobin 120, fluxapyroxad 75 gAI/ha, one spray 1 day before inoculation): 51.4%
% control observed on leaves 14 DAYS after the application (Alternaria solani [7]; rate 120 gAI/ha, tomato): 71%
% control observed on leaves 20 DAYS after the application (Alternaria solani [7]; rate 120 gAI/ha, tomato): 51.4%
Var % (14/20 DAYS) (Alternaria solani [7]; rate 120 gAI/ha, tomato): −27.6%
% control observed on leaves 21 DAYS after the application (Erysiphe necator; rate 90 gr (A.I.)/ha): 65.9%
% control observed on leaves 21 DAYS after the application (Sphaerotheca fuliginea; rate 250 gr (A.I.)/ha): 51.0%

CC1(C(=O)Nc2ccc(O)c(Cl)c2Cl)CCCCC1 [FENHEXAMID]
% control observed on leaves 21 DAYS after the application (Botrytis cinerea; rate 500 gr (A.I.)/ha): 74.2%

COC(=O)N(OC)c1ccccc1COc1ccn(-c2ccc(Cl)cc2)n1 [PYRACLOSTROBIN]
% control observed on leaves 21 DAYS after the application (Erysiphe necator; rate 75 gr (A.I.)/ha): 70.7%
% control observed on leaves 21 DAYS after the application (Sphaerotheca fuliginea; rate 100 gr (A.I.)/ha): 60.1%
% control observed on leaves 21 DAYS after the application (Botrytis cinerea; rate 75 gr (A.I.)/ha): 66.7%

CCC(C)(NC(=O)c1cc(Cl)c(C)c(Cl)c1)C(=O)CCl (stereo not drawn) [ZOXAMIDE]
% control observed on leaves 14 DAYS after the application (Phytophthora infestans; rate 180 gr (A.I.)/ha): 74.4%
% control observed on leaves 21 DAYS after the application (Alternaria solani [1]; rate 180 gr (A.I.)/ha): 62.9%
% control observed on leaves 21 DAYS after the application (Plasmopara viticola; rate 135.0 gr (A.I.)/ha): 74.7%

CCCN(CCOc1c(Cl)cc(Cl)cc1Cl)C(=O)n1ccnc1 [PROCHLORAZ, prochloraz]
effect of FOLPET on the efficacy of the systemic product, treated area [4]: numerically appreciated but not significantly improved
effect of FOLPET on the efficacy of the systemic product, untreated area [4]: significant positive effect

Cn1cc(C(=O)Nc2ccc(F)cc2-c2ccc(Cl)c(Cl)c2)c(C(F)F)n1 [BIXAFEN, bixafen]
effect of FOLPET on the efficacy of the systemic product, treated and untreated areas [4]: greatly improved efficacy
protection of the untreated area by the formulation alone ([4]; without FOLPET): incapable of protecting the areas not treated

CC(C)CC(C)c1sccc1NC(=O)c1cn(C)nc1C(F)(F)F (stereo not drawn) [PENTHIOPYRAD, penthiopyrad]
effect of FOLPET on the efficacy of the systemic product, treated and untreated areas [4]: a significant effect was observed only for the 28-day timing

C#CCOc1ccc(CCNC(=O)C(OCC#C)c2ccc(Cl)cc2)cc1OC (stereo not drawn) [MANDIPROPAMIDE]
% control observed on leaves 14 DAYS after the application (Phytophthora infestans; rate 150 gr (A.I.)/ha): 65.7%
% control observed on leaves 21 DAYS after the application (Alternaria solani [1]; rate 150 gr (A.I.)/ha): 62.5%
% control observed on leaves 21 DAYS after the application (Plasmopara viticola; rate 112.5 gr (A.I.)/ha): 74.1%

CC(C)(C)C(O)(CCc1ccc(Cl)cc1)Cn1cncn1 (stereo not drawn) [TEBUCONAZOLE, tebuconazole]
% control observed on leaves 26 DAYS after the application (Venturia inaequalis [2]; [8]): 77.4%
% control observed on leaves 19 DAYS after the application (Venturia inaequalis [2]; Table 3): 82.5%
% control observed on leaves 26 DAYS after the application (Venturia inaequalis [2]; Table 3): 77.4%
Var % (19/26 DAYS) (Venturia inaequalis [2]; Table 3): −6.2%
% control observed on leaves 26 DAYS after the application (Venturia inaequalis [3]; [9]): 78.2%
% control observed on leaves 19 DAYS after the application (Venturia inaequalis [3]; Table 5): 83.8%
% control observed on leaves 26 DAYS after the application (Venturia inaequalis [3]; Table 5): 78.2%
Var % (19/26 DAYS) (Venturia inaequalis [3]; Table 5): −6.7%
% control observed on leaves 20 DAYS after the application (Alternaria solani [5]): 64.3%

CCCCCCCCc1c(CC)nc2ncnn2c1N [AMETOCRADIN]
% control observed on leaves 14 DAYS after the application (Phytophthora infestans; rate 240 gr (A.I.)/ha): 68.0%
% control observed on leaves 21 DAYS after the application (Alternaria solani [1]; rate 240 gr (A.I.)/ha): 62.0%
% control observed on leaves 21 DAYS after the application (Plasmopara viticola; rate 225.0 gr (A.I.)/ha): 78.8%
